Test results taken from patent US10493099B2, “Compositions containing arsenic and their use in methods of treatment” (Eupharma Pty Ltd, priority 2015, dated 2019).

Columns and labels:
[1] = Dissolution studies of arsenic salts in 100 mL water with stirring at room temperature (pH 7 and pH 1-2); assay type: physicochemical; settings: for Dissolution Time at pH 1-2 / Dissolution Time at pH 7 / Final pH after dissolution: 100 mL, stirring, room temperature
[2] = all three mediums: simulated gastric fluid pH 1.24, pH 4.5, pH 7.0; 150 mls, 37° C., spin bar
Experimental: 100 mg of arsenic trioxide was dissolved in 10 mL of 0.5M NaOH with heat (<ten minutes). 250 mg Sodium Carbonate was then added (dissolves almost straight away) and excess water evaporated.
Dissolution experiments were then carried out on the AC01 at 3 different pH levels. […] Prior to addition of the capsules 150 mls of the dissolution solution was heated to 37° C. and the solution contained a spin bar at a speed of 2. The appropriate capsule was then added.

[3] = Dissolution of 1 mg arsenic trioxide capsule in 0.1M HCl and purified water with 0.5% BKC; assay type: physicochemical; settings: 1 mg capsule RX500950.01, 500 ml medium, 37° C., paddle 50 rpm
Experimental: To manufacture the components for insertion into the capsule all ingredients were sieved through a 500 μm sieve into a sealable jar and blended for 20 minutes in a tumble blender. The blended powder was filled into the Size 4 white hard gelatin capsules at a fill weight of 140 mg.
For the dissolution experiments the medium was 0.1M HCl and purified water with a volume of 500 ml also containing 0.5% benzalkonium chloride (BKC) at 37° C. The paddle stir speed was 50 rpm. The capsule shell disrupted within three minutes and all contents were expelled in less than five minutes. Only 5% arsenic trioxide was dissolved after 20 minutes. Even after 19 hours only 60% was dissolved. The presence of the citric acid reduced the pH of the medium from ˜8.0 to ˜7.3. Given the anticipated increase in solubility at a higher pH, these experiments were repeated at a higher pH as indicated in the tables below wherein the mean and range values represented percentage dissolution of the arsenic trioxide.

[4] = Trial 1: test dissolution of arsenic trioxide solely in sodium bicarbonate solution; assay type: physicochemical; settings: 50 mg in 2540 mg sodium bicarbonate / approximately 27.2 mls water, with heating
Experimental: 2540 mg of Sodium Bicarbonate was dissolved in approximately 27.2 mls water (dissolved in less than 5 minutes). 50 mg Arsenic Trioxide was then added to this bicarbonate solution.

[5] = Dissolution of arsenic trioxide in 0.1M NaOH (pH 13); assay type: physicochemical
Experimental: A further dissolution experiment was conducted in a solution of 0.1M NaOH (pH 13) and, as expected, more arsenic trioxide could be dissolved with a 100% level reached between 15-20 minutes as indicated in the table below.

[6] = cited from earlier work
[7] = not dissolved within the time given

Molecule: Sodium arsenic carbonate [AC01]
- Dissolution Time at pH 1-2 [1]: <5-10 seconds - Final pH
- Dissolution Time at pH 7 [1]: 40 seconds - Final pH after
- Final pH after dissolution ([1]; dissolution at pH 1-2): after dissolution = 1.13
- Final pH after dissolution ([1]; dissolution at pH 7): dissolution = pH 8.95
- Time to dissolution of powder from capsule [2]: less than two

Molecule: O=[As][O-].[Na+] [Sodium meta arsenite, sodium meta arsenite]
- Dissolution Time at pH 1-2 [1]: 55 seconds - Final pH after
- Final pH after dissolution ([1]; dissolution at pH 1-2): dissolution = 1.27
- Final pH after dissolution ([1]; dissolution at pH 7): pH after dissolution = 10.2
- Time to dissolve at pH 1-2 ([1]; pH 1-2): less than one
- Time to dissolve at pH 7 ([1]; pH 7): less than 2 minutes

Molecule: Arsenic trioxide
- Dissolution Time at pH 1-2 [1, 7]: Not dissolved in 3 hours
- Dissolution Time at pH 7 [1, 7]: Not dissolved in 3 hours
- arsenic trioxide dissolved ([3]; after 20 minutes): 5%
- arsenic trioxide dissolved ([3]; after 19 hours): 60%
- Dissolution in sodium bicarbonate solution [4]: would not dissolve even with heating
- Time at which 100% dissolution level is reached [5]: 15 to 20 min
- % Recovered (weight Corrected) Mean ([5]; 5 minutes): 12%
- % Recovered (weight Corrected) Mean ([5]; 10 minutes): 65%
- % Recovered (weight Corrected) Mean ([5]; 15 minutes): 96%
- % Recovered (weight Corrected) Mean ([5]; 20 minutes): 109%
- % Recovered (weight Corrected) Mean ([5]; 25 minutes): 116%
- % Recovered (weight Corrected) Mean ([5]; 30 minutes): 114%

Molecule: O=C([O-])O.[Na+] [Sodium Bicarbonate]
- pH 0.1M solution [6]: 8.3
